Laboratory results taken from patent US20240343704A1, “HALO-SUBSTITUTED AMINO PYRIDINE COMPOUNDS AS INHIBITORS OF THE HAEMATOPOIETIC PROGENITOR KINASE 1 (HPK1)” (priority 2021, published 2024).

Molecular target: T1, Recombinant (1-346) HPK1 (h) (Homo sapiens, UniProt Q92918)
T1 construct: Recombinant (1-346) HPK1 (h) is incubated with 8 mM MOPS pH 7.0
T1 sequence (Q92918 1-346): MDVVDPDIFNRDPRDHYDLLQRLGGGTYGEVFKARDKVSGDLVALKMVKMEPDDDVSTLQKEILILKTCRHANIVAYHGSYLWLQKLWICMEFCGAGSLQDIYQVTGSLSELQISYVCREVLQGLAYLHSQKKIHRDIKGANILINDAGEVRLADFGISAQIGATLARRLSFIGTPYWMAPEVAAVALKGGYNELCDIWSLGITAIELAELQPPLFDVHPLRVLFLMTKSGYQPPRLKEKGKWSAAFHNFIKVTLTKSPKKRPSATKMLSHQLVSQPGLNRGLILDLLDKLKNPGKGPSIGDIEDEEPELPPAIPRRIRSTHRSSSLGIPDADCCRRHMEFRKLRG
Test: HPK1 Human STE Kinase Enzymatic Radiometric Assay
Assay type: biochemical
Conditions: read-out: HPK1 IC50 nM Range*
Description: A stock solution of 10 mM of test compound is prepared in DMSO. The compound plate was prepared by 3-fold and 9-point serial dilutions. […] The reaction is initiated by The addition of the Mg/ATP mix. After incubation for 40 minutes at RT, the reaction is stopped by the addition of phosphoric acid to a concentration of 0.5%.

SMILES | IC50
Cc1[nH]c(=O)c2ccc(-c3cc(-c4ccc(N5CCN(C(C)C)CC5)cc4)c(F)nc3N)cc2c1Cl [I-538, 6-(2-amino-6-fluoro-5-(4-(4-isopropylpiperazin-1-yl)phenyl)pyridin-3-yl)-4-chloro-3-methylisoquinolin-1(2H)-one] | 0.1 to 10 nM
CN1CCOC2(C1)CN(c1ccc(-c3cc(-c4cc5c(cc4F)C(=O)NCC5)c(N)nc3F)cc1)C2 [I-539, 6-(2-amino-6-fluoro-5-(4-(8-methyl-5-oxa-2,8-diazaspiro[3.5]nonan-2-yl)phenyl)pyridin-3-yl)-7-fluoro-3,4-dihydroisoquinolin-1(2H)-one] | 0.1 to 10 nM
COC1CCN(Cc2cc(-c3cc(-c4cc5c(cc4F)C(=O)NCC5)c(N)nc3F)ccc2C2CCOCC2)CC1 [I-541, 6-(2-amino-6-fluoro-5-(3-((4-methoxypiperidin-1-yl)methyl)-4-(tetrahydro-2H-pyran-4-yl)phenyl)pyridin-3-yl)-7-fluoro-3,4-dihydroisoquinolin-1(2H)-one] | 11 to 100 nM
Cc1c[nH]c(=O)c2ccc(-c3cc(-c4ccc(N5CCN(C6CCC6)CC5)cc4)c(F)nc3N)cc12 [I-545, 6-(2-amino-5-(4-(4-cyclobutylpiperazin-1-yl)phenyl)-6-fluoropyridin-3-yl)-4-methylisoquinolin-1(2H)-one] | 0.1 to 10 nM
CC(C)N1CCN(c2ccc(-c3cc(-c4cc5c(F)c[nH]c(=O)c5cc4F)c(N)nc3F)cc2)CC1 [I-547, 6-(2-amino-6-fluoro-5-(4-(4-isopropylpiperazin-1-yl)phenyl)pyridin-3-yl)-4,7-difluoroisoquinolin-1(2H)-one] | 0.1 to 10 nM
Nc1nc(F)c(-c2ccc(N3CCOCC3)c(CN3CCC3)c2)cc1-c1ccc2c(c1)CCNC2=O [I-549, 6-(2-amino-5-(3-(azetidin-1-ylmethyl)-4-morpholinophenyl)-6-fluoropyridin-3-yl)-3,4-dihydroisoquinolin-1(2H)-one] | 11 to 100 nM
CCN(C)Cc1cc(-c2cc(-c3cc4c(cc3F)C(=O)NCC4)c(N)nc2F)ccc1C1CCOCC1 [I-552, 6-(2-amino-5-(3-((ethyl(methyl)amino)methyl)-4-(tetrahydro-2H-pyran-4-yl)phenyl)-6-fluoropyridin-3-yl)-7-fluoro-3,4-dihydroisoquinolin-1(2H)-one] | 11 to 100 nM
COCCN(C)Cc1cc(-c2cc(-c3ccc4c(c3)CCNC4=O)c(N)nc2F)ccc1N1CCOCC1 [I-553, 6-(2-amino-6-fluoro-5-(3-(((2-methoxyethyl)(methyl)amino)methyl)-4-morpholinophenyl)pyridin-3-yl)-3,4-dihydroisoquinolin-1(2H)-one] | 0.1 to 10 nM
CN(C)Cc1cc(-c2cc(-c3ccc4c(c3)CCNC4=O)c(N)nc2F)ccc1OCC(F)F [I-555, 6-(2-amino-5-(4-(2,2-difluoroethoxy)-3-((dimethylamino)methyl)phenyl)-6-fluoropyridin-3-yl)-3,4-dihydroisoquinolin-1(2H)-one] | 11 to 100 nM
CN(C)Cc1cc(-c2cc(-c3cc4c(cc3F)C(=O)NCC4)c(N)nc2F)ccc1OCC(F)F [I-556, 6-(2-amino-5-(4-(2,2-difluoroethoxy)-3-((dimethylamino)methyl)phenyl)-6-fluoropyridin-3-yl)-7-fluoro-3,4-dihydroisoquinolin-1(2H)-one] | 11 to 100 nM
Nc1nc(F)c(-c2ccc(C3CCOCC3)c(CN3CCCC3)c2)cc1-c1ccc2c(c1)CCNC2=O [I-557, 6-(2-amino-6-fluoro-5-(3-(pyrrolidin-1-ylmethyl)-4-(tetrahydro-2H-pyran-4-yl)phenyl)pyridin-3-yl)-3,4-dihydroisoquinolin-1(2H)-one] | 11 to 100 nM
Nc1nc(F)c(-c2ccc(C3CCOCC3)c(CN3CCCC3)c2)cc1-c1cc2c(cc1F)C(=O)NCC2 [I-558, 6-(2-amino-6-fluoro-5-(3-(pyrrolidin-1-ylmethyl)-4-(tetrahydro-2H-pyran-4-yl)phenyl)pyridin-3-yl)-7-fluoro-3,4-dihydroisoquinolin-1(2H)-one] | 11 to 100 nM
Nc1nc(F)c(-c2ccc(N3CCOCC3)c(CN3CCCCC3)c2)cc1-c1cc2c(cc1F)C(=O)NCC2 [I-560, 6-(2-amino-6-fluoro-5-(4-morpholino-3-(piperidin-1-ylmethyl)phenyl)pyridin-3-yl)-7-fluoro-3,4-dihydroisoquinolin-1(2H)-one] | 11 to 100 nM
CN(C)Cc1cc(-c2cc(-c3cc4c(F)c[nH]c(=O)c4cc3F)c(N)nc2F)ccc1N1CCOCC1 [I-561, 6-(2-amino-5-(3-((dimethylamino)methyl)-4-morpholinophenyl)-6-fluoropyridin-3-yl)-4,7-difluoroisoquinolin-1(2H)-one] | 0.1 to 10 nM

Now from value to compound:

IC50 | SMILES
11 to 100 nM | COC1CCN(Cc2cc(-c3cc(-c4ccc5c(c4)CCNC5=O)c(N)nc3F)ccc2C2CCOCC2)CC1 [I-540, 6-(2-amino-6-fluoro-5-(3-((4-methoxypiperidin-1-yl)methyl)-4-(tetrahydro-2H-pyran-4-yl)phenyl)pyridin-3-yl)-3,4-dihydroisoquinolin-1(2H)-one]
11 to 100 nM | COC1CCN(Cc2cc(-c3cc(-c4ccc5c(c4)CCNC5=O)c(N)nc3F)ccc2N2CCOCC2)C1 (stereo not shown) [I-542, 6-(2-amino-6-fluoro-5-(3-((3-methoxypyrrolidin-1-yl)methyl)-4-morpholinophenyl)pyridin-3-yl)-3,4-dihydroisoquinolin-1(2H)-one]
0.1 to 10 nM | Nc1nc(F)c(-c2ccc(N3CCN(CCCC(F)F)CC3)cc2)cc1-c1ccc2c(=O)[nH]cc(F)c2c1 [I-544, 6-(2-amino-5-(4-(4-(4,4-difluorobutyl)piperazin-1-yl)phenyl)-6-fluoropyridin-3-yl)-4-fluoroisoquinolin-1(2H)-one]
0.1 to 10 nM | Nc1nc(F)c(-c2ccc(N3CCN(C4CCC4)CC3)cc2)cc1-c1ccc2c(=O)[nH]cc(F)c2c1 [I-546, 6-(2-amino-5-(4-(4-cyclobutylpiperazin-1-yl)phenyl)-6-fluoropyridin-3-yl)-4-fluoroisoquinolin-1(2H)-one]
11 to 100 nM | Nc1nc(F)c(-c2ccc(N3CCOCC3)c(CN3CCC3)c2)cc1-c1cc2c(cc1F)C(=O)NCC2 [I-550, 6-(2-amino-5-(3-(azetidin-1-ylmethyl)-4-morpholinophenyl)-6-fluoropyridin-3-yl)-7-fluoro-3,4-dihydroisoquinolin-1(2H)-one]
11 to 100 nM | COCCN(C)Cc1cc(-c2cc(-c3cc4c(cc3F)C(=O)NCC4)c(N)nc2F)ccc1N1CCOCC1 [I-554, 6-(2-amino-6-fluoro-5-(3-(((2-methoxyethyl)(methyl)amino)methyl)-4-morpholinophenyl)pyridin-3-yl)-7-fluoro-3,4-dihydroisoquinolin-1(2H)-one]
11 to 100 nM | Nc1nc(F)c(-c2ccc(N3CCOCC3)c(CN3CCCCC3)c2)cc1-c1ccc2c(c1)CCNC2=O [I-559, 6-(2-amino-6-fluoro-5-(4-morpholino-3-(piperidin-1-ylmethyl)phenyl)pyridin-3-yl)-3,4-dihydroisoquinolin-1(2H)-one]
0.1 to 10 nM | CN(C)Cc1cc(-c2cc(-c3cc4c(F)c[nH]c(=O)c4cc3F)c(N)nc2F)ccc1C1CCOCC1 [I-562, 6-(2-amino-5-(3-((dimethylamino)methyl)-4-(tetrahydro-2H-pyran-4-yl)phenyl)-6-fluoropyridin-3-yl)-4,7-difluoroisoquinolin-1(2H)-one]
